One test has as its target T1, EED (1-441)-His protein (Homo sapiens, UniProt O75530).
T1 construct: 30 nM EED (1-441)-His protein
Description: EED-H3K27Me3 peptide competition binding assay by AlphaScreen. The following applies: EED-H3K27Me3 peptide competition, AlphaScreen; read-out: (a) IC50 EED Alphascreen binding Qualified. The method, boiled down: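 Serially diluted compound (12 points, 3-fold) incubated 20 min with 30 nM EED(1-441)-His and 15 nM biotin-H3K27Me3(19-33) peptide in 25 mM HEPES pH 8, 0.02% Tween-20, 0.5% BSA. Ni-chelate acceptor/streptavidin donor beads (10 μg/mL each) added, 1 h rt dark; 615 nm emission normalized to controls, dose-response fit for IC50.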

For test [1], the target named is wild type PRC2 (wtPRC2) complex (Homo sapiens, UniProt O75530). The test is described as follows: EED LC-MS assay (SAH production by PRC2). It is filed as biochemical. The following applies: PRC2 LC-MS assay; read-out: (b) IC50 EED LC-MS Qualified. The method, boiled down:
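Pentameric PRC2 (EZH2, SUZ12, EED, Rbap48, AEBP), 12 nM final, preincubated 20 min with compound and SAM, then 1.5 μM biotinylated H3K27me0 peptide, 1 μM SAM, pH 8.0, 120 min at rt. SAH quantified by LC-MS/MS with d4-SAH; control-normalized activity fitted for IC50.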

The subject of test [2] is H3K27 methylation in G401 cell. Description: ELISA (H3K27 methylation) assay in G401 cells. It is filed as cell-based, human. The following applies: Homo sapiens, G-401, H3K27 methylation ELISA, read-out: (c) IC50 ELISA Qualified. Put shortly: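 G401 cells treated 48 h with 3-fold dilutions (8 or 12 points, top 20 μM). Acid-extracted histones probed by ELISA for H3K27me3 or H3K27me2 with ECL readout, normalized to total H3. Percent inhibition versus DMSO fitted to dose-response curve for IC50.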
For orientation: ELISA stands for enzyme-linked immunosorbent assay.

T1 sequence (O75530 whole entry): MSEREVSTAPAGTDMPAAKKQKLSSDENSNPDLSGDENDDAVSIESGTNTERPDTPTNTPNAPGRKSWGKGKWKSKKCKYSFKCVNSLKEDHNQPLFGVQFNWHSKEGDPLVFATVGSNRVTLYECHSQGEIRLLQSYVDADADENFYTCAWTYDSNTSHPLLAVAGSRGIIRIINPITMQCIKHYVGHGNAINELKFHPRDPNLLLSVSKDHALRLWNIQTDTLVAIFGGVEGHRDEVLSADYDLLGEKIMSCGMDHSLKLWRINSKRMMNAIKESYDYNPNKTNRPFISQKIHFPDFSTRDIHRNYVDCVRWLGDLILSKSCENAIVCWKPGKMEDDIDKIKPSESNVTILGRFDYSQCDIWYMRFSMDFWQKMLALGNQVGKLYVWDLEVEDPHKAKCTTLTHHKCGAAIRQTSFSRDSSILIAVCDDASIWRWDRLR
wild type PRC2 (wtPRC2) complex, sequence (O75530 whole entry): as above
wild type PRC2 (wtPRC2) complex, sequence (Q15910 whole entry partner): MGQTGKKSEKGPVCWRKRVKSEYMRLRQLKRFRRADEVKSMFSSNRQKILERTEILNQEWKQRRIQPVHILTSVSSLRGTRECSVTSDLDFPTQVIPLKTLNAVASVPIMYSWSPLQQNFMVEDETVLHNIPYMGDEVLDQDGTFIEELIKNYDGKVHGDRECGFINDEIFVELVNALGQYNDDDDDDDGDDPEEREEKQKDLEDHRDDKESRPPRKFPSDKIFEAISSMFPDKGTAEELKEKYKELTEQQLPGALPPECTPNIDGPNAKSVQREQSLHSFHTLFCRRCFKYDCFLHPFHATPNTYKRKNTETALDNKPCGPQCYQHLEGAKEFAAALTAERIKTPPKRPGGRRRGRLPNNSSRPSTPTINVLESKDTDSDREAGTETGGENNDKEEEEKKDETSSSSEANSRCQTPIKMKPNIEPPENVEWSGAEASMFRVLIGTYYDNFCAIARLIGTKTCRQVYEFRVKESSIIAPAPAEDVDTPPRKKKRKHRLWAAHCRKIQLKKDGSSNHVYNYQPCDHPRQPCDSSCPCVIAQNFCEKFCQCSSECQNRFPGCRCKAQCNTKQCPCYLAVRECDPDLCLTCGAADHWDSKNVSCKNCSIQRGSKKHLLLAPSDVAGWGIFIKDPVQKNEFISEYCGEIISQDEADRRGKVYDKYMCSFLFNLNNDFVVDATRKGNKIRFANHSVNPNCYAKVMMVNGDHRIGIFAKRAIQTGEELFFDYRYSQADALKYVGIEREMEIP
wild type PRC2 (wtPRC2) complex, sequence (Q15022 whole entry partner): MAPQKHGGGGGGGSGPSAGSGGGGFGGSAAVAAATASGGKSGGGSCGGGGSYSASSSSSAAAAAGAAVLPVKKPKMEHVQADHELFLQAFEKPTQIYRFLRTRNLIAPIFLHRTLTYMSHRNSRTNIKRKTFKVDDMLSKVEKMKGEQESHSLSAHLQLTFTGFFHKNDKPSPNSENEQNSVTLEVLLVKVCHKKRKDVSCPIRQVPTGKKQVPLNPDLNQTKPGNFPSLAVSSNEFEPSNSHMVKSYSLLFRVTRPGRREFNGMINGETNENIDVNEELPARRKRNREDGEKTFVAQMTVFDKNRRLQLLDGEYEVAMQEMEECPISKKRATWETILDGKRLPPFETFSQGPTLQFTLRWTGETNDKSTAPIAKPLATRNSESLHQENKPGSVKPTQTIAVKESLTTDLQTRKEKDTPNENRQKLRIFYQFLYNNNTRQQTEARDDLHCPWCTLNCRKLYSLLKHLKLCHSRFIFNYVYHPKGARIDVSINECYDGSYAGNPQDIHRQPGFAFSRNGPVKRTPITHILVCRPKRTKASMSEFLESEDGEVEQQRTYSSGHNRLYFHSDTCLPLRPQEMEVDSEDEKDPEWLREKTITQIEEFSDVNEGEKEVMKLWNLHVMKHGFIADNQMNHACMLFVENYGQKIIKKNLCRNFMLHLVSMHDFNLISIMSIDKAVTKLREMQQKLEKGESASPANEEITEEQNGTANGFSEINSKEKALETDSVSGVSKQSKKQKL
wild type PRC2 (wtPRC2) complex, sequence (Q09028 whole entry partner): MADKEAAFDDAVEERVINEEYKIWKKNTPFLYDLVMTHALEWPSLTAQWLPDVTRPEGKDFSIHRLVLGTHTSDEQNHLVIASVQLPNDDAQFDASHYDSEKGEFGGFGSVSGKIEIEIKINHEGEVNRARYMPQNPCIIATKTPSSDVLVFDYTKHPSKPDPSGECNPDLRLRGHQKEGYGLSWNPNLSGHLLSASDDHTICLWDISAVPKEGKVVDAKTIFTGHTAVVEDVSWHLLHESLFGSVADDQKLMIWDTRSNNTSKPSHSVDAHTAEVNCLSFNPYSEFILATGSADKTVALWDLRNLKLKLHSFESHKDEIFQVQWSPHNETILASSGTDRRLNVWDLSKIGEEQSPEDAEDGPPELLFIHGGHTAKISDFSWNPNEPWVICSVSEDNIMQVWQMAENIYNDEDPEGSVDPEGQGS
wild type PRC2 (wtPRC2) complex, sequence (Q6ZN18 whole entry partner): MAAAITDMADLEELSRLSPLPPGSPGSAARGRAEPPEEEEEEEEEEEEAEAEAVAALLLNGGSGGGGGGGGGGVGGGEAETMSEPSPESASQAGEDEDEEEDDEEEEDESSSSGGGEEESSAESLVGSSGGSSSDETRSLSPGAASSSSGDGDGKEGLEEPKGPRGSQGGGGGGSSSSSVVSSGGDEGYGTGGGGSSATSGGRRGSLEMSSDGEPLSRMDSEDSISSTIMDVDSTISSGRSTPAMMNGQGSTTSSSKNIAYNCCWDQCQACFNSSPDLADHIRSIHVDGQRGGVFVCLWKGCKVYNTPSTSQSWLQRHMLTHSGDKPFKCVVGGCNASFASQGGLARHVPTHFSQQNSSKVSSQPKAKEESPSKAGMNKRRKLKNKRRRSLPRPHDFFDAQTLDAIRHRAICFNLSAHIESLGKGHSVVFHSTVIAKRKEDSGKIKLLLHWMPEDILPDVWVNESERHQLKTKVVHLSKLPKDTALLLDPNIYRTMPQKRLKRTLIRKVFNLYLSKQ

For `COc1cccc(F)c1CNc1ccc(-c2cnc(N(C)C)nc2C)c2nncn12` [Example 260, 8-(2-(dimethylamino)-4-methylpyrimidin-5-yl)-N-(2-fluoro-6-methoxybenzyl)-[1,2,4]triazolo[4,3-a]pyridin-5-amine], the IC50 (as a rule, the concentration that inhibits the measured activity by half) at EED (1-441)-His protein amounted to 35.4 nM; in test [1], 45.9 nM; in test [2] it was 21.7 nM.

Consider `COc1cccc(F)c1CNc1ccc(-c2cccnc2C(F)F)c2nncn12` [Example 265, 8-(2-(difluoromethyl)pyridin-3-yl)-N-(2-fluoro-6-methoxybenzyl)-[1,2,4] triazolo[4,3-a]pyridin-5-amine], for which the IC50 turned out to be 14.1 nM at EED (1-441)-His protein, 6.3 nM in test [1] and 7.1 nM in test [2].

In the case of `COc1cccc(F)c1CNc1ccc(-c2ccc(N3CCOCC3)nc2C)c2nncn12` [Example 266, N-(2-fluoro-6-methoxybenzyl)-8-(2-methyl-6-morpholinopyridin-3-yl)-[1,2,4]triazolo[4,3-a]pyridin-5-amine], the IC50 was 8.9 nM at EED (1-441)-His protein, 56.2 nM in test [1] and 9.9 nM in test [2].

For the molecule `COc1cccc(F)c1CNc1ccc(-c2cnc(Cl)cc2C)c2nncn12` [Example 267, 8-(6-chloro-4-methylpyridin-3-yl)-N-(2-fluoro-6-methoxybenzyl)-[1,2,4]triazolo[4,3-a] pyridin-5-amine], the IC50 at EED (1-441)-His protein turned out to be 17 nM; in test [1], 75.8 nM; in test [2] it was 14.6 nM.

On to `COc1cccc(F)c1CNc1ccc(-c2cnc(C)cc2C)c2nncn12` [Example 268, 8-(4,6-dimethylpyridin-3-yl)-N-(2-fluoro-6-methoxybenzyl)-[1,2,4]triazolo[4,3-a] pyridin-5-amine], for which the IC50 at EED (1-441)-His protein stood at 19.4 nM; in test [1], 34 nM; in test [2], 21.4 nM.

Consider `COc1cccc(F)c1CNc1ccc(-c2ccc(C(=O)N(C)C)nc2C)c2nncn12` [Example 269, 5-(5-((2-fluoro-6-methoxybenzyl)amino)-[1,2,4]triazolo[4,3-a]pyridin-8-yl)-N,N,6-trimethylpicolinamide], for which the IC50 worked out at 8.9 nM at EED (1-441)-His protein, 60.1 nM in test [1] and 4.8 nM in test [2].

In the case of `COc1cccc(F)c1CNc1ccc(-c2cnc(C3CC3)cc2C)c2nncn12` [Example 270, 8-(6-cyclopropyl-4-methylpyridin-3-yl)-N-(2-fluoro-6-methoxybenzyl)-[1,2,4]triazolo[4,3-a]pyridin-5-amine], the figures for the half-maximal inhibitory concentration (IC50) (at EED (1-441)-His protein; in test [1]; in test [2]) were 27.3 nM, 106 nM and 42.3 nM, respectively.

For `CCc1cc(S(C)(=O)=O)ccc1-c1ccc(NCc2c(F)cccc2OC)n2cnnc12` [Example 271, 8-(2-ethyl-4-(methylsulfonyl)phenyl)-N-(2-fluoro-6-methoxybenzyl)-[1,2,4]triazolo[4,3-a]pyridin-5-amine], the IC50 at EED (1-441)-His protein worked out at 33.2 nM; in test [1], 80.3 nM; in test [2], 30 nM.

On to `CCc1ccncc1-c1ccc(NCc2c(F)cccc2OC)n2cnnc12` [Example 272, 8-(4-ethylpyridin-3-yl)-N-(2-fluoro-6-methoxybenzyl)-[1,2,4]triazolo[4,3-a]pyridin-5-amine], for which the IC50 on EED (1-441)-His protein stood at 34.7 nM; in test [1], 57.5 nM; in test [2], 61.8 nM.

Take `COc1cccc(F)c1CNc1ccc(-c2cncnc2C(C)C)c2nncn12` [Example 273, N-(2-fluoro-6-methoxybenzyl)-8-(4-isopropylpyrimidin-5-yl)-[1,2,4] triazolo[4,3-a]pyridin-5-amine]: the IC50 turned out to be 69 nM at EED (1-441)-His protein, 99.7 nM in test [1] and 61.3 nM in test [2].

For the molecule `COc1cccc(F)c1CNc1ccc(-c2c(C)nn(CC(C)O)c2C)c2nncn12` (stereo not drawn) [Example 274, 1-(4-(5-((2-fluoro-6-methoxybenzyl)amino)-[1,2,4]triazolo[4,3-a]pyridin-8-yl)-3,5-dimethyl-1H-pyrazol-1-yl)propan-2-ol], the IC50 on EED (1-441)-His protein turned out to be 14.6 nM; in test [1], 25.3 nM; in test [2] it was 15.4 nM.

In the case of `COc1cccc(F)c1CNc1ccc(-c2c(C)nn(C3CC3)c2C)c2nncn12` [Example 275, 8-(1-cyclopropyl-3,5-dimethyl-1H-pyrazol-4-yl)-N-(2-fluoro-6-methoxybenzyl)-[1,2,4]triazolo[4,3-a] pyridin-5-amine], the IC50 came out at 23.3 nM on EED (1-441)-His protein, 71.8 nM in test [1] and 21.6 nM in test [2].

Regarding `COc1cccc(F)c1CNc1ccc(-c2ccnc(F)c2C)c2nncn12` [Example 276, 8-(2-fluoro-3-methylpyridin-4-yl)-N-(2-fluoro-6-methoxybenzyl)-[1,2,4]triazolo[4,3-a] pyridin-5-amine], the IC50 on EED (1-441)-His protein turned out to be 13.9 nM; in test [1] it was 50.5 nM; in test [2], 8 nM.

As to `COc1cccc(F)c1CNc1ccc(-c2ccnc(C(F)F)c2C)c2nncn12` [Example 277, 8-(2-(difluoromethyl)-3-methylpyridin-4-yl)-N-(2-fluoro-6-methoxybenzyl)-[1,2,4]triazolo[4,3-a]pyridin-5-amine], the IC50 at EED (1-441)-His protein was 14.2 nM; in test [1], 32.2 nM; in test [2], 12 nM.

As to `COc1cccc(F)c1CNc1ccc(-c2ccnc(CF)c2C)c2nncn12` [Example 278, N-(2-fluoro-6-methoxybenzyl)-8-(2-(fluoromethyl)-3-methylpyridin-4-yl)-[1,2,4] triazolo[4,3-a]pyridin-5-amine], the IC50 on EED (1-441)-His protein turned out to be 11 nM; in test [1], 27 nM; in test [2], 6.4 nM.

For the molecule `COc1cccc(F)c1CNc1ccc(-c2cc(F)ncc2C)c2nncn12` [Example 279, 8-(2-fluoro-5-methylpyridin-4-yl)-N-(2-fluoro-6-methoxybenzyl)-[1,2,4] triazolo[4,3-a]pyridin-5-amine], the IC50 at EED (1-441)-His protein came to 15.8 nM; in test [1], 75.1 nM; in test [2] it was 12.1 nM.

In the case of `CCc1ncncc1-c1ccc(NCc2c(F)cccc2OC)n2cnnc12` [Example 280, 8-(4-ethylpyrimidin-5-yl)-N-(2-fluoro-6-methoxybenzyl)-[1,2,4]triazolo[4,3-a]pyridin-5-amine], the IC50 is 23.7 nM at EED (1-441)-His protein, 317 nM in test [1] and 11.8 nM in test [2].

In the case of `COc1cccc(F)c1CNc1ccc(-c2cc(C(F)(F)F)ncc2C)c2nncn12` [Example 281, N-(2-fluoro-6-methoxybenzyl)-8-(5-methyl-2-(trifluoromethyl)pyridin-4-yl)-[1,2,4]triazolo[4,3-a] pyridin-5-amine], the results for the IC50 (at EED (1-441)-His protein; in test [1]; in test [2]) were 23 nM, 124 nM and 16.9 nM, respectively.

Turning to `COc1cccc(F)c1CNc1ccc(-c2cn(C(C)C)nc2C)c2nncn12` [Example 282, N-(2-fluoro-6-methoxybenzyl)-8-(1-isopropyl-3-methyl-1H-pyrazol-4-yl)-[1,2,4]triazolo[4,3-a]pyridin-5-amine], the IC50 came to 10.7 nM on EED (1-441)-His protein, 15.7 nM in test [1] and 8.1 nM in test [2].

`CCc1ncccc1-c1ccc(NCc2c(F)cccc2OC)n2cnnc12` [Example 283, 8-(2-ethylpyridin-3-yl)-N-(2-fluoro-6-methoxybenzyl)-[1,2,4]triazolo[4,3-a]pyridin-5-amine]: the IC50 on EED (1-441)-His protein was found to be 39.6 nM; in test [1], 576 nM; in test [2], 62.1 nM.

In the case of `COc1cccc(F)c1CNc1ccc(-c2cnc(C3CC3)nc2C)c2nncn12` [Example 284, 8-(2-cyclopropyl-4-methylpyrimidin-5-yl)-N-(2-fluoro-6-methoxybenzyl)-[1,2,4] triazolo[4,3-a]pyridin-5-amine], the IC50 was determined as 9.6 nM on EED (1-441)-His protein, 44.4 nM in test [1] and 10.5 nM in test [2].

On to `COc1cccc(F)c1CNc1ccc(-c2ccnc(C)c2C)c2nncn12` [Example 287, 8-(2,3-dimethylpyridin-4-yl)-N-(2-fluoro-6-methoxybenzyl)-[1,2,4]triazolo[4,3-a] pyridin-5-amine], for which the IC50 on EED (1-441)-His protein was 10.1 nM; in test [1], 38.6 nM; in test [2], 6.6 nM.

On to `COc1cccc(F)c1CNc1ccc(-c2cc(C)nn2C)c2nncn12` [Example 288, 8-(1,3-dimethyl-1H-pyrazol-5-yl)-N-(2-fluoro-6-methoxybenzyl)-[1,2,4]triazolo[4,3-a] pyridin-5-amine], for which the IC50 at EED (1-441)-His protein turned out to be 12.7 nM; in test [1], 23.4 nM; in test [2], 6.3 nM.

As for `COc1cccc(F)c1CNc1ccc(-c2cnn(C(C)C)c2C)c2nncn12` [Example 289, N-(2-fluoro-6-methoxybenzyl)-8-(1-isopropyl-5-methyl-1H-pyrazol-4-yl)-[1,2,4] triazolo[4,3-a]pyridin-5-amine], the IC50 on EED (1-441)-His protein amounted to 28.4 nM; in test [1], 128 nM; in test [2], 30.3 nM.

Regarding `COc1cccc(F)c1CNc1ccc(-c2cncnc2C(F)F)c2nncn12` [Example 290, 8-(4-(difluoromethyl)pyrimidin-5-yl)-N-(2-fluoro-6-methoxybenzyl)-[1,2,4] triazolo[4,3-a]pyridin-5-amine], the IC50 was 30.7 nM on EED (1-441)-His protein, 33.2 nM in test [1] and 4 nM in test [2].

The values above are taken from patent publication US10689378B2, “Triazolopyridine compounds and uses thereof” (Novartis AG, priority 2016, dated 2020).
